# Measurements: patent US9493430B2, “Biaryl- or heterocyclic biaryl-substituted cyclohexene derivative compounds as CETP inhibitors” (CHONG KUN DANG PHARMACEUTICAL CORP., priority 2013, dated 2016)
# Biological target: CETP (Homo sapiens (Human), UniProt P11597)
# Assay: Test for inhibition of cholesteryl ester transfer (in vitro)
# Type: biochemical
# Details: human plasma as CETP source, LDL from healthy persons as acceptor, rHDL-agarose donor, 37° C.
# Source text: Test for Inhibition of Cholesteryl Ester Transfer (In Vitro)
# 1. Construction of Cholesteryl Ester Donor
# To construct a cholesteryl ester donor to be used in the test, radiolabeled recombinant HDL containing […] (GE healthcare, TRK886, 3.5 μCi/mg of apoA-1) and apoA-1 was synthesized. Then, rHDL-agarose having the recombinant HDL immobilized thereon by CNBr-activated Sepharose 4B (Amersham Biosciences, Sweden) resin was used in the test.
# 2. Cholesteryl Ester Transfer Test
# As a protein source for cholesteryl ester transfer, plasma from healthy persons was used, and as a cholesteryl ester receptor, LDL from healthy persons was used. Samples were treated with each test compound to final concentrations of 16, 80, 400, 2000 and 10000 nM and analyzed in duplicate. For the cholesteryl ester transfer test, 20 μl of plasma, 50 μl of LDL (0.25 mg/ml) and 50 μl of rHDL-agarose (0.25 mg/ml) were added, and a solution containing a test compound was added, followed by reaction at 37° C. Then, centrifugation was performed at 4° C. for 3 minutes to stop the reaction, and 150 μl of the supernatant was taken and transferred to a 96-well plate for radioactivity measurement, and the radioactivity of the plate was measured with a beta-ray detector.
# 3. Statistical Processing
# The ratio of [^3H]-cholesteryl oleate from HDL to LDL was calculated and used as a result value, and from the result value, IC50 value was calculated using GraphPad Prism 5.0.
# Chain of CETP (P11597 18-493): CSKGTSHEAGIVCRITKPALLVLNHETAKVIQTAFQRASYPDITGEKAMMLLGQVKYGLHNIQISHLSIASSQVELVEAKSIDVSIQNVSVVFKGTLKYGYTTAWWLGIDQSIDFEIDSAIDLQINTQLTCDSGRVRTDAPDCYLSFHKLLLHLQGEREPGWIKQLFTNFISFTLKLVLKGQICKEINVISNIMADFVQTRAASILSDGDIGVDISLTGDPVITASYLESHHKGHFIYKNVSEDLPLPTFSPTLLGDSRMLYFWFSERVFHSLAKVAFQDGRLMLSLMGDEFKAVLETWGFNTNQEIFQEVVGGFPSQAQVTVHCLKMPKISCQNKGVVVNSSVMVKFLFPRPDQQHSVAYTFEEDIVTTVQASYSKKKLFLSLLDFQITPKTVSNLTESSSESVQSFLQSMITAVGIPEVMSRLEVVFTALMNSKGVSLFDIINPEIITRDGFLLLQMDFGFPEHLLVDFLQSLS
row,SMILES,IC50 [nM]
1,"COc1cc(C(F)(F)F)c(-c2ccc(C(=O)O)cc2C)cc1C1=C(CN2C(=O)O[C@H](c3cc(C(F)(F)F)cc(C(F)(F)F)c3)[C@@H]2C)CC(C)(C)CC1 [Compound 616, 5′-(2-(((4S,5R)-5-(3,5-bis(trifluoromethyl)phenyl)-4-methyl-2-oxooxazolidin-3-yl)methyl)-4,4-dimethylcyclohex-1-enyl)-4′-methoxy-2-methyl-2′-(trifluoromethyl)biphenyl-4-carboxylic acid]",7.6
2,"COC(=O)c1ccc(-c2cc(C3=C(CN4C(=O)O[C@H](c5cc(C(F)(F)F)cc(C(F)(F)F)c5)[C@@H]4C)CC(C)(C)CC3)c(OC)cc2F)c(C)c1 [Compound 572, methyl 5′-(2-(((4S,5R)-5-(3,5-bis(trifluoromethyl)phenyl)-4-methyl-2-oxooxazolidin-3-yl)methyl)-4,4-dimethylcyclohex-1-enyl)-2′-fluoro-4′-methoxy-2-methylbiphenyl-4-carboxylate]",15
3,"COc1ncc(-c2ccc(C(=O)O)cc2C(C)C)cc1C1=C(CN2C(=O)O[C@H](c3cc(C(F)(F)F)cc(C(F)(F)F)c3)[C@@H]2C)CC(C)(C)CC1 [Compound 578, 4-(3-(2-(((4S,5R)-5-(3,5-bis(trifluoromethyl)phenyl)-4-methyl-2-oxooxazolidin-3-yl)methyl)-4,4-dimethylcyclohex-1-enyl)-2-methoxypyridin-5-yl)-3-isopropylbenzoic acid]",12.6
4,"COc1cc(C2=C(CN3C(=O)O[C@H](c4cc(C(F)(F)F)cc(C(F)(F)F)c4)[C@@H]3C)CC(C)(C)CC2)cc(-c2ccc(C(=O)O)cc2C)c1 [Compound 689, 3′-(2-(((4S,5R)-5-(3,5-bis(trifluoromethyl)phenyl)-4-methyl-2-oxooxazolidin-3-yl)methyl)-4,4-dimethylcyclohex-1-enyl)-5′-methoxy-2-methylbiphenyl-4-carboxylic acid]",24.3
5,"COc1ccc(-c2ccc(C(=O)O)cc2C(F)(F)F)nc1C1=C(CN2C(=O)O[C@H](c3cc(C(F)(F)F)cc(C(F)(F)F)c3)[C@@H]2C)CC(C)(C)CC1 [Compound 764, 4-(2-(2-(((4S,5R)-5-(3,5-bis(trifluoromethyl)phenyl)-4-methyl-2-oxooxazolidin-3-yl)methyl)-4,4-dimethylcyclohex-1-enyl)-3-methoxypyridin-6-yl)-3-(trifluoromethyl)benzoic acid]",8.9
6,"COC(=O)c1ccc(-c2cnc(OC)c(C3=C(CN4C(=O)O[C@H](c5cc(C(F)(F)F)cc(C(F)(F)F)c5)[C@@H]4C)CC(C)(C)CC3)c2)c(C)c1 [Compound 555, methyl 4-(3-(2-(((4S,5R)-5-(3,5-bis(trifluoromethyl)phenyl)-4-methyl-2-oxooxazolidin-3-yl)methyl)-4,4-dimethylcyclohex-1-enyl)-2-methoxypyridin-5-yl)-3-methylbenzoate]",28.4
7,"C[C@H]1[C@@H](c2cc(C(F)(F)F)cc(C(F)(F)F)c2)OC(=O)N1CC1=C(c2cc(-c3ccc(C(=O)O)cc3C(F)(F)F)ccc2Cl)CCC(C)(C)C1 [Compound 729, 3′-(2-(((4S,5R)-5-(3,5-bis(trifluoromethyl)phenyl)-4-methyl-2-oxooxazolidin-3-yl)methyl)-4,4-dimethylcyclohex-1-enyl)-4′-chloro-2-(trifluoromethyl)biphenyl-4-carboxylic acid]",7.5
8,"COc1ccc(-c2ccc(C(=O)O)cc2OC)cc1C1=C(CN2C(=O)O[C@H](c3cc(C(F)(F)F)cc(C(F)(F)F)c3)[C@@H]2C)CC(C)(C)CC1 [Compound 597, 3′-(2-(((4S,5R)-5-(3,5-bis(trifluoromethyl)phenyl)-4-methyl-2-oxooxazolidin-3-yl)methyl)-4,4-dimethylcyclohex-1-enyl)-2,4′-dimethoxybiphenyl-4-carboxylic acid]",50.2
9,"C[C@H]1[C@@H](c2cc(C(F)(F)F)cc(C(F)(F)F)c2)OC(=O)N1CC1=C(c2cc(-c3ccc(C(=O)O)cc3Cl)ccc2F)CCC(C)(C)C1 [Compound 739, 3′-(2-(((4S,5R)-5-(3,5-bis(trifluoromethyl)phenyl)-4-methyl-2-oxooxazolidin-3-yl)methyl)-4,4-dimethylcyclohex-1-enyl)-2-chloro-4′-fluorobiphenyl-4-carboxylic acid]",20.3
10,"C[C@H]1[C@@H](c2cc(C(F)(F)F)cc(C(F)(F)F)c2)OC(=O)N1CC1=C(c2cc(-c3ccc(C(=O)O)cc3F)cc(C(F)(F)F)c2)CCC(C)(C)C1 [Compound 748, 3′-(2-(((4S,5R)-5-(3,5-bis(trifluoromethyl)phenyl)-4-methyl-2-oxooxazolidin-3-yl)methyl)-4,4-dimethylcyclohex-1-enyl)-2-fluoro-5′-(trifluoromethyl)biphenyl-4-carboxylic acid]",15.9
11,"C[C@H]1[C@@H](c2cc(C(F)(F)F)cc(C(F)(F)F)c2)OC(=O)N1CC1=C(c2ccc(F)c(-c3ccc(C(=O)O)cc3C(F)(F)F)c2)CCC(C)(C)C1 [Compound 723, 5′-(2-(((4S,5R)-5-(3,5-bis(trifluoromethyl)phenyl)-4-methyl-2-oxooxazolidin-3-yl)methyl)-4,4-dimethylcyclohex-1-enyl)-2′-fluoro-2-(trifluoromethyl)biphenyl-4-carboxylic acid]",9.6
12,"COc1cc(C)c(-c2ccc(C(=O)O)cc2C)cc1C1=C(CN2C(=O)O[C@H](c3cc(C(F)(F)F)cc(C(F)(F)F)c3)[C@@H]2C)CC(C)(C)CC1 [Compound 684, 5′-(2-(((4S,5R)-5-(3,5-bis(trifluoromethyl)phenyl)-4-methyl-2-oxooxazolidin-3-yl)methyl)-4,4-dimethylcyclohex-1-enyl)-4′-methoxy-2,2′-dimethylbiphenyl-4-carboxylic acid]",1.9
13,"CCNC(=O)c1ccc(-c2ccc(F)c(C3=C(CN4C(=O)O[C@H](c5cc(C(F)(F)F)cc(C(F)(F)F)c5)[C@@H]4C)CC(C)(C)CC3)c2)c(C(F)(F)F)c1 [Compound 756, 3′-(2-(((4S,5R)-5-(3,5-bis(trifluoromethyl)phenyl)-4-methyl-2-oxooxazolidin-3-yl)methyl)-4,4-dimethylcyclohex-1-enyl)-N-ethyl-4′-fluoro-2-(trifluoromethyl)biphenyl-4-carboxamide]",5.9
14,"COC(=O)c1cccc(-c2ccc(OC)c(C3=C(CN4C(=O)O[C@H](c5cc(C(F)(F)F)cc(C(F)(F)F)c5)[C@@H]4C)CC(C)(C)CC3)c2)c1 [Compound 567, methyl 3′-(2-(((4S,5R)-5-(3,5-bis(trifluoromethyl)phenyl)-4-methyl-2-oxooxazolidin-3-yl)methyl)-4,4-dimethylcyclohex-1-enyl)-4′-methoxybiphenyl-3-carboxylate]",56.6
15,"COc1cc(C)c(-c2ccc(C(=O)O)cc2)cc1C1=C(CN2C(=O)O[C@H](c3cc(C(F)(F)F)cc(C(F)(F)F)c3)[C@@H]2C)CC(C)(C)CC1 [Compound 620, 5′-(2-(((4S,5R)-5-(3,5-bis(trifluoromethyl)phenyl)-4-methyl-2-oxooxazolidin-3-yl)methyl)-4,4-dimethylcyclohex-1-enyl)-4′-methoxy-2′-methylbiphenyl-4-carboxylic acid]",11.6
16,"Cc1cc(C(=O)O)ccc1-c1ccc(Cl)c(C2=C(CN3C(=O)O[C@H](c4cc(C(F)(F)F)cc(C(F)(F)F)c4)[C@@H]3C)CC(C)(C)CC2)c1 [Compound 727, 3′-(2-(((4S,5R)-5-(3,5-bis(trifluoromethyl)phenyl)-4-methyl-2-oxooxazolidin-3-yl)methyl)-4,4-dimethylcyclohex-1-enyl)-4′-chloro-2-methylbiphenyl-4-carboxylic acid]",11.4
17,"COc1ccc(-c2ccc(C(=O)O)cc2F)cc1C1=C(CN2C(=O)O[C@H](c3cc(C(F)(F)F)cc(C(F)(F)F)c3)[C@@H]2C)CC(C)(C)CC1 [Compound 561, 3′-(2-(((4S,5R)-5-(3,5-bis(trifluoromethyl)phenyl)-4-methyl-2-oxooxazolidin-3-yl)methyl)-4,4-dimethylcyclohex-1-enyl)-2-fluoro-4′-methoxybiphenyl-4-carboxylic acid]",23.2
18,"COc1ccc(-c2ccc(C(=O)O)c(F)c2F)cc1C1=C(CN2C(=O)O[C@H](c3cc(C(F)(F)F)cc(C(F)(F)F)c3)[C@@H]2C)CC(C)(C)CC1 [Compound 592, 3′-(2-(((4S,5R)-5-(3,5-bis(trifluoromethyl)phenyl)-4-methyl-2-oxooxazolidin-3-yl)methyl)-4,4-dimethylcyclohex-1-enyl)-2,3-difluoro-4′-methoxybiphenyl-4-carboxylic acid]",8.4
19,"Cc1cc(C(=O)O)ccc1-c1cccc(C2=C(CN3C(=O)O[C@H](c4cc(C(F)(F)F)cc(C(F)(F)F)c4)[C@@H]3C)CC(C)(C)CC2)c1 [Compound 651, 3′-(2-(((4S,5R)-5-(3,5-bis(trifluoromethyl)phenyl)-4-methyl-2-oxooxazolidin-3-yl)methyl)-4,4-dimethylcyclohex-1-enyl)-2-methylbiphenyl-4-carboxylic acid]",10.7
20,"COc1ncc(-c2ccc(C(=O)O)c(F)c2F)cc1C1=C(CN2C(=O)O[C@H](c3cc(C(F)(F)F)cc(C(F)(F)F)c3)[C@@H]2C)CC(C)(C)CC1 [Compound 596, 4-(3-(2-(((4S,5R)-5-(3,5-bis(trifluoromethyl)phenyl)-4-methyl-2-oxooxazolidin-3-yl)methyl)-4,4-dimethylcyclohex-1-enyl)-2-methoxypyridin-5-yl)-2,3-difluorobenzoic acid]",17.9
